These results are taken from patent US20240325336A1, “COMBINATION THERAPIES COMPRISING OXYGEN-CONTAINING STRUCTURALLY ENHANCED FATTY ACIDS FOR TREATMENT OF NON-ALCOHOLIC STEATOHEPATITIS” (NORTHSEA THERAPEUTICS B.V., priority 2020, published 2024).

“Also recorded” adds a separate entry of the source.

A short description of experiment [1]: CDAA/high-fat diet NASH mouse model: relative body weight and liver weight. The format is in vivo. The note with it: CDAA-HFD mice, 8 weeks QD; for liver weight: compared to untreated vehicle group (FIG. 1B). The source says:
(§1) Although the widely used methionine-choline deficient (MCD) diet consistently reproduces severe NASH-like hepatic inflammation and fibrosis in mice, it is also associated with severe weight-loss (loss of both skeletal muscle and fat mass). This is associated with an increased risk of death which presents major problems for long-term fibrogenesis experiments. […] In the current study, male mice (strain C57BI/6JRj) were fed choline deficient high-fat diets (45% of total calories from fat; “CDAA/high-fat” or “CDAA-HFD”). The NASH inducing diet was instigated 6 weeks prior to the commencement of administration of active agents in order to evaluate treatment and reversal of NASH parameters. The NASH inducing CDAA-HFD was continued for the 8 weeks of administration of the indicated active agents and combinations thereof.
(§2) The aim of this study was to evaluate the effects of 8 weeks of administration of Compound A, OCA, semaglutide, and firsocostat alone and in combination on metabolic parameters, hepatic pathology, and on NAFLD Activity Score including Fibrosis Stage in male CDAA-HFD mice.
(§3) Prior to administration of the activate agents, animals were randomized into treatment groups based on body weight. A baseline group (n=12) was terminated at study start after 6 weeks on the CDAA-HFD diet. CDAA-HFD fed mice (n=10-12 per group) received daily per oral (PO) treatment with vehicle, Compound A (112 mg/kg), OCA (30 mg/kg), semaglutide (30 nmol/kg SC), firsocostat (5 mg/kg), Compound A+Semaglutide (112 mg/kg+30 nmol/kg), Compound A+OCA (112 mg/kg+30 mg/kg), and Compound A+firsocostat (112 mg/kg+5 mg/kg) for 8 weeks. Terminal liver biopsy were analyzed for histopathological scores. Terminal quantitative endpoints included plasma/liver biochemistry and liver histomorphometry.

The subject of experiment [2] is male CDAA-HFD mice. The experiment in a line: CDAA/high-fat diet NASH mouse model: liver total cholesterol and triglycerides. The format is in vivo. The settings on record: 8 weeks QD; for relative levels of liver total cholesterol (normalized to liver weight): compared to untreated vehicle group (FIG. 4A); for relative levels of liver triglycerides (normalized to liver weight): compared to untreated vehicle group (FIG. 4B).
From the text: as §1, §2, §3

Experiment [3] relates to male CDAA-HFD mice. Put plainly: CDAA/high-fat diet NASH mouse model: hepatic steatosis (H&E image analysis, steatosis score). The note with it: 8 weeks QD; for hepatic steatosis area (relative liver lipids): compared to untreated vehicle group (FIG. 5A); for percentage of hepatocytes with lipid droplets: compared to untreated vehicle group (FIG. 5B); for steatosis scores: compared to untreated vehicle group (FIG. 6). The format is in vivo.
From the text: as §1, §3
(§4) Liver samples stained with Hematoxylin and Eosin (H&E) or Picro Sirius Red (PSR) were scored for NAS components (steatosis, lobular inflammation, and ballooning degeneration) and fibrosis stage respectively using the clinical criteria outlined by Kleiner et al., Hepatology, 2005; 41. Total NAS represents the sum of scores for steatosis, inflammation, and ballooning, and ranges from 0-8.
(§5) NAS and fibrosis stage was determined by deep learning applications developed by Gubra (Denmark) using the VIS software (Visiopharm®, Denmark) for a more accurate and objective method for staging disease in DIO-NASH mouse models.
(§6) Scanned H&E stained slides were analyzed in several steps: • 1. Tissue detection at low magnification, followed by deep learning-based detection of portal triads and central veins at 10× magnification. • 2. Another deep learning application detected nuclei of hepatocytes with lipid droplets, hepatocytes without lipids, ballooned hepatocytes, and inflammatory cells at 20× magnification. Inflammatory foci were defined as a cluster of >3 inflammatory cells. • 3. The inflammation score of the liver tissue sample was the average score for all 20× fields.
Steatosis score was calculated as percentage of hepatocytes with lipid droplets.
Hepatic steatosis area (relative liver lipids) was quantified on H&E stained slides by image analysis using the VIS software (Visiopharm®, Denmark). VIS protocols are designed to analyze the virtual slides in two steps: • 1. Tissue detection at low magnification (1× objective); and • 2. Detection of steatosis and tissue at high magnification (20× objective).
The quantitative estimates of steatosis were calculated as an area fraction as follows: […]

Experiment [4] deals with male CDAA-HFD mice. Put plainly: CDAA/high-fat diet NASH mouse model: hepatic inflammation and NAFLD activity score. The settings on record: 8 weeks QD; for number of inflammatory cells (per mm^2): compared to untreated vehicle group and to baseline levels (FIG. 7A); for inflammatory foci (per mm^2): compared to untreated vehicle group and to baseline levels (FIG. 7B); for NAFLD activity scores (NAS): compared to untreated vehicle group (FIG. 8B). The format is in vivo.
From the text: as §1, §3, §4, §5, §6

For experiment [5], the system named is male CDAA-HFD mice. The experiment in a line: CDAA/high-fat diet NASH mouse model: hepatic fibrosis markers (hydroxyproline, galectin-3, PSR, α-SMA). The note with it: 8 weeks QD; for galectin-3 hepatic fractional area: compared to untreated vehicle group (FIG. 9B); for hepatic fibrotic area determined by PSR staining: compared to untreated vehicle group (FIG. 10A); for sinusoidal fibrotic area (PSR): compared to untreated vehicle group (FIG. 10B). The format is in vivo.
From the text: as §1, §3
Scanned PSR stained slides were analyzed in several steps: • 1. Tissue detection at low magnification, followed by deep learning-based detection of portal triads and central veins at 10× magnification. Periportal zone was defined as 100 μm around the portal triads. • 2. Fibrosis fibers were detected using the linear Bayesian image analysis method in the periportal and sinusoidal zones. • 3. Bridging was detected using threshold image analysis based on a polynomial local linear filter feature. • 4. Different measures of size, shape and connectivity form both fibrosis and bridging fibrosis in the two zoned were used in a XGBoost classifier to predict fibrosis stage.
Immunohistochemistry (IHC)-positive staining was quantified by image analysis using the VIS software (Visiopharm®, Denmark) using two steps: • 1. Detection of tissue at low magnification (1× objective), excluding the liver capsule; and • 2. Detection of IHC-positive staining.
The quantitation of IHC-positive staining is calculated as an area fraction as follows: […]
IHC factional area quantification was assessed for galectin-3, collagen 1A1, and α-smooth muscle actin.
Hepatic factional area assessment with picrosirius red stain was determined using the same methods.
Hepatic fibrotic area was determined by staining with picrosirus red (PSR), which binds collagen, and histological quantitative assessment.

Experiment [6] has as its system male CDAA-HFD mice. Put plainly: CDAA/high-fat diet NASH mouse model: plasma triglycerides and total cholesterol. The format is in vivo. The note with it: 8 weeks QD, compared to untreated vehicle group (FIG. 3A).
From the text: as §1, §2
Prior to administration of the activate agents, animals were randomized into treatment groups based on body weight. […] Terminal liver biopsy were analyzed for histopathological scores. Terminal quantitative endpoints included plasma/liver biochemistry and liver histomorphometry.

In another experiment the test system is rodent NASH models. The note with it: APOE*3Leiden.CETP high-fat diet, ob/ob AMLN, STAM and CDAA/high-fat diet mouse models; WO2019111048; cited from earlier work.
Another experiment concerns APOE*3Leiden.CETP mice. The settings on record: WO2016173923A1, cited from earlier work.

Turning to semaglutide, in experiment [1], the liver weight entry was “decreased”. The “last recorded relative body weight” value in experiment [1] (compared to vehicle (FIG. 1A)) was “decreased”. Also, in the experiment with male CDAA-HFD mice [2], the “relative levels of liver total cholesterol (normalized to liver weight)” value was “did not significantly affect” and the “relative levels of liver triglycerides (normalized to liver weight)” value is “not significantly affecting”. In the experiment on male CDAA-HFD mice [3], the “hepatic steatosis area (relative liver lipids)” value is listed as “not significantly affecting either parameter; also recorded: did not have a significant effect” and the “percentage of hepatocytes with lipid droplets” value (“percentage of hepatocytes” for short) was “not significantly affecting either parameter; also recorded: did not significantly affect”. In the experiment with male CDAA-HFD mice [4], the “number of inflammatory cells (per mm^2)” value is given as “not having a significant effect” and the “inflammatory foci (per mm^2)” value is listed as “not having a significant effect”. Further, in the experiment with male CDAA-HFD mice [5], the “galectin-3 hepatic fractional area” value is “not having a significant effect”, the “hepatic fibrotic area determined by PSR staining” value is recorded as “did not significantly affect” and the “sinusoidal fibrotic area (PSR)” value is recorded as “Neither compound alone had a significant effect”. In the experiment on male CDAA-HFD mice [5] (listed as semaglutidue), the “galectin-3 hepatic fractional area” value is on record as “neither semaglutidue nor firsocostat having a significant effect”. For the same compound, the “galectin-3 expressing area compared to baseline” value in the experiment on male CDAA-HFD mice [5] (vs baseline (6 weeks CDAA-HFD, before therapy) (FIG. 9B)) is “significantly increased”.
As to `CC/C=C\C/C=C\C/C=C\C/C=C\C/C=C\CCCCOC(CC)C(=O)O` (centres unmarked) [Compound A, 2-((5Z,8Z,11Z,14Z,17Z)-icosa-5,8,11,14,17-pentaenyloxy)butanoic acid], the liver weight entry in experiment [1] was “decreased”. For the same compound, the plasma triglycerides result in the experiment on male CDAA-HFD mice [6] is recorded as “significantly decreased”. In addition, in the experiment with male CDAA-HFD mice [2], the “relative levels of liver total cholesterol (normalized to liver weight)” value is “significant decrease” and the “relative levels of liver triglycerides (normalized to liver weight)” value was “significant decrease”. In addition, in the experiment with male CDAA-HFD mice [3], the “percentage of hepatocytes” value is given as “significantly decreased” and the steatosis scores result is reported as “decreased”. For the same compound, in the experiment on male CDAA-HFD mice [4], the “NAFLD activity scores (NAS)” value was “significantly decreased”, the “number of inflammatory cells (per mm^2)” value was “significant decrease; also recorded: below the baseline level” and the “inflammatory foci (per mm^2)” value is on record as “significant decrease; also recorded: below the baseline level”. Besides, in the experiment on male CDAA-HFD mice [5], the “galectin-3 hepatic fractional area” value is given as “significantly decreased”, the “hepatic fibrotic area determined by PSR staining” value was “significantly decreased” and the “sinusoidal fibrotic area (PSR)” value is “Neither compound alone had a significant effect”. The “hepatic area expressing α-SMA” value with male CDAA-HFD mice [5] (compared to untreated vehicle group (FIG. 11B)) is reported as “neither Compound A nor OCA significantly affecting”. Further, in the experiment on rodent NASH models, the “effect on aspects of NASH (hepatic steatosis, inflammation, fibrosis)” value was “address multiple aspects of NASH, including hepatic steatosis, inflammation, and fibrosis”.
For `COc1ccccc1[C@H](Cn1c(=O)n(C(C)(C)C(=O)O)c(=O)c2c(C)c(-c3ncco3)sc21)OC1CCOCC1` [firsocostat], in the experiment with male CDAA-HFD mice [3], the “hepatic steatosis area (relative liver lipids)” value is “significantly greater”, the “percentage of hepatocytes” value is “significantly decreased” and the steatosis scores entry is reported as “decreased”. In addition, the “NAFLD activity scores (NAS)” value with male CDAA-HFD mice [4] was “significantly decreased”. Further, the “galectin-3 hepatic fractional area” value in the experiment with male CDAA-HFD mice [5] was “neither semaglutidue nor firsocostat having a significant effect”.
As to `CC/C=C\C/C=C\C/C=C\C/C=C\C/C=C\CCCCSC(CC)(CC)C(=O)O` [Compound N, 2-ethyl-2-((5Z,8Z,11Z,14Z,17Z)-icosa-5,8,11,14,17-pentaenylthio)butanoic acid], in the experiment on APOE*3Leiden.CETP mice (APOE*3Leiden.CETP mice), the “fibrosis (as measured by hydroxyproline/proline ratio)” value is recorded as “effective in reducing fibrosis”. Besides, in the experiment on APOE*3Leiden.CETP mice, the “influx of inflammatory cells into the liver” value is “prevented” and the “preventing diet-induced hepatic fibrosis, compared with rosiglitazone” value was “superior to rosiglitazone”.
